Reference: PMC8287028 (Frontiers in Veterinary Science, 2021)
“And” between values parts separate entries of the source, which are not always exact repeats. Equal entries are not always repeated. Where two headings read alike, the source gives them in different places.

Assays:
[1] = test system: healthy mixed-breed dogs; experiment: Serum biochemistry profile before and after apixaban; assay type: in vivo, dog; set-up: TP / Bicarbonate: unit not given beside the values; Calcium / Magnesium / Globulin / ALT / AST / GGT / T.bili / Sodium / BUN / Creatinine: unit not given here; details: for ALT / AST / Albumin / BUN / Bicarbonate / Calcium / Creatinine / GGT / Globulin / Magnesium / Sodium / T.bili / TP / Amylase / Cholesterol / Glucose / Phosphate / Potassium / TIBC: individual dogs (Dog 1-6); for Amylase: in U/L (unit assumed); for TIBC: in µg/dL (unit assumed)
Protocol: (§1) Catheters were flushed with 0.9% saline, without heparin.
Pairwise comparisons between continuous variables were conducted with Wilcoxon matched-pairs signed rank test, while comparisons of more than two groups were conducted using the Friedman test with Dunn's post-hoc adjustment. […] Comparisons of pharmacodynamic variables between baseline values and those at discrete sampling intervals were performed using the Friedman test with Dunn's post-hoc correction for multiple comparisons. […] Alpha was set at 0.05. Statistical analyses were performed using commercial software (Prism 9, GraphPad, La Jolla, CA).

[2] = cited from earlier work
[3] = Pharmacokinetics after intravenous apixaban, plasma concentrations by LC/MS; assay type: in vivo, dog; details: dogs; for Vd: read-out: Vd (volume of distribution); for AUC: read-out: AUC (area-under-the-curve); for C0: read-out: C0 (concentration at time zero); for clearance: read-out: CL (systemic clearance) (converted); for half-life: read-out: K10 T½ (elimination half-life) (converted); for MRT: read-out: MRT (mean residence time)
Protocol: All injection durations were identical.
as §1
Analyses of plots and PK modeling were performed using compartmental methods in standard software (Phoenix, WinNonlin, Certara, St. Louis, MO). One-, 2- and 3-compartment models were fit to the plasma concentration data.

[4] = cats, cited from earlier work
[5] = test system: healthy mixed-breed dogs; experiment: Monitoring for adverse reactions after IV and PO apixaban; details: study period
From the text: Additionally, drug metabolism might be different in beagles compared with mixed-breed dogs ([33], [34]). […] The study was approved by the Institutional Animal Care and Use Committee (IACUC) at Cornell University College of Veterinary Medicine (Protocol #2019-0099). All dogs were housed at Cornell University and cared for by licensed veterinarians and technicians according to established protocols. All dogs were permanently adopted into private homes after study completion.
On the days of drug administration, 5 Fr × 25 cm trilumen wire-guided catheters (Mila International, Erlanger, KY) were aseptically placed in external jugular veins by modified-Seldinger technique to facilitate atraumatic, repeat blood sample collection. Dogs were sedated with IV butorphanol 0.2 mg/kg and dexmedetomidine 5 μg/kg (Zoetis, Parsippany, NJ) to facilitate catheter placement. Jugular catheters were secured using 3-0 nylon sutures, protected with sterile bandages, and flushed with 0.9% saline (no heparin was used). […] Dogs were closely monitored for adverse reactions throughout the sample collection period. […] After each sample collection, one citrate anticoagulated whole blood sample was analyzed using thromboelastography (TEG), while the second citrate sample was centrifuged (1,370 g, 10 min, 20°C), the plasma separated, split into two aliquots and then frozen at −80°C pending batch analyses.

[6] = test system: healthy mixed-breed dogs; experiment: Complete blood count before and after apixaban; assay type: in vivo, dog; set-up: RBC: unit not given beside the values; Neut / Lymph / Mono / Eos / Baso / HCT / MCV / MCH / MCHC: unit not given here; details: for Baso / Eos / HCT / Hgb / Lymph / MCH / MCHC / MCV / Mono / Neut / RBC / WBC: individual dogs (Dog 1-6); for WBC: in 10^3/µL (unit assumed)
[7] = +24h after IV apixaban, in mg/dL (unit assumed)
[8] = +30h after PO apixaban, in g/dL (unit assumed)
[9] = +30h after PO apixaban, in mg/dL (unit assumed)
[10] = +30h after PO apixaban, in mmol/L (unit assumed)
[11] = both sexes, mixed-breed, dog, plasma, iv, 0.18 mg/kg, IV, mean dose 0.18 mg/kg, geometric mean
[12] = both sexes, mixed-breed, dog, plasma, iv, 0.18 mg/kg, IV, mean dose 0.18 mg/kg, mean of 6 dogs
[13] = IV, mean dose 0.18 mg/kg, individual dogs (Dog 1-6), 0.18 mg/kg

COc1ccc(-n2nc(C(N)=O)c3c2C(=O)N(c2ccc(N4CCCCC4=O)cc2)CC3)cc1 [apixaban]
ALT ([1]; +24h after IV apixaban): 45 (2×) and 114 and 30 (2×) and 86
AST ([1]; +24h after IV apixaban): 34 and 44 and 21 and 32 (2×) and 31
Albumin ([1]; +24h after IV apixaban): 3.9 and 3.4 (2×) and 3.5 and 3.7 and 3.8
BUN ([1]; +24h after IV apixaban): 16 (2×) and 19 and 30 and 20 and 21
Bicarbonate ([1]; +24h after IV apixaban): 23 and 18 (2×) and 21 and 19 (2×)
Calcium ([1]; +24h after IV apixaban): 10.0 (2×) and 8.9 and 10.2 and 9.9 and 9.6
Creatinine ([1]; +24h after IV apixaban): 0.8 and 0.7 (2×) and 1 (2×) and 0.9
GGT ([1]; +24h after IV apixaban): 2 (3×) and 3 (2×) and 6
Globulin ([1]; +24h after IV apixaban): 2.3 and 2.1 (2×) and 2.4 and 2.0 (2×)
Magnesium ([1]; +24h after IV apixaban): 1.8 (2×) and 1.6 and 1.7 (3×)
Sodium ([1]; +24h after IV apixaban): 147 and 146 (3×) and 149 and 148
T.bili ([1]; +24h after IV apixaban): 0.0 (4×) and 0.1 (2×)
TP ([1]; +24h after IV apixaban): 6.2 and 5.5 and 5.8 (2×) and 5.6 and 5.7
Amylase ([1]; +24h after IV apixaban): 467 and 362 and 561 and 514 and 451 and 707
Cholesterol [1, 7]: 174 and 180 and 226 and 129 and 127 and 173
Glucose [1, 7]: 58 and 39 and 93 and 100 and 85 and 52
Phosphate [1, 7]: 3.9 and 3.7 and 3.3 and 4.4 and 3.6 and 4.1
Potassium ([1]; +24h after IV apixaban, in mmol/L (unit assumed)): 4.5 and 4.2 and 4.4 and 4.3
TIBC ([1]; +24h after IV apixaban): 391 and 352 and 385 and 345 and 313 and 356
ALT ([1]; +30h after PO apixaban): 26 (2×) and 33 and 36 and 39 and 35
AST ([1]; +30h after PO apixaban): 34 and 22 and 32 (2×) and 45 and 33
Albumin ([1]; +30h after PO apixaban): 3.9 and 3.6 (2×) and 3.4 and 3.5 (2×)
BUN ([1]; +30h after PO apixaban): 19 (2×) and 12 and 10 and 18 and 24
Calcium ([1]; +30h after PO apixaban): 10.2 (2×) and 9.7 (3×) and 9.8
Creatinine ([1]; +30h after PO apixaban): 0.9 and 0.8 (2×) and 0.6 and 0.7 and 1
GGT ([1]; +30h after PO apixaban): 0 (2×) and 4 (2×) and 6 (2×)
Globulin ([1]; +30h after PO apixaban): 2.1 (3×) and 2.5 and 2 and 2.3
Magnesium ([1]; +30h after PO apixaban): 1.7 (5×) and 1.8
Phosphate ([1]; +30h after PO apixaban): 2.8 and 3.9 (2×) and 3.7 (2×) and 3.8
Sodium ([1]; +30h after PO apixaban): 147 (4×) and 150 and 146
T.bili ([1]; +30h after PO apixaban): 0.1 (4×) and 0.0 (2×)
Amylase ([1]; +30h after PO apixaban): 469 and 325 and 515 and 494 and 353 and 638
TP [1, 8]: 6 and 5.7 and 6.1 and 5.4 and 5.8 and 5.6
Cholesterol [1, 9]: 198 and 192 and 244 and 106 and 162 and 186
Glucose [1, 9]: 77 and 93 and 76 and 78 and 102 and 87
Bicarbonate [1, 10]: 22 and 20 and 17 and 18 and 14 and 19
Potassium [1, 10]: 4.3 and 4.5 and 3.9 and 4.9 and 4.6 and 4.8
TIBC ([1]; +30h after PO apixaban): 391 and 331 and 372 and 288 and 336 and 329
chloride and GGT, baseline versus 24 h post-injection ([1]; IV): statistically significant reductions
biochemical parameters ([1]; PO, baseline versus 30 h post-dose): no changes
protein-bound [2]: over 90%
time to maximal plasma concentrations ([2]; dogs, 0.5 mg/kg IV or PO): 2.8 h
oral bioavailability ([2]; dogs, 0.5 mg/kg, liquid formulation with methylcellulose and polysorbate 80): 80%
standard PT ([2]; dogs, Thromboplastin C-Plus reagent): not the standard PT
factor Xa-dependent clotting time test (HEPTEST) ([2]; dogs): prolonged
Vd ([3]; both sexes, mixed-breed, dog, in vivo, iv, 0.18 mg/kg, IV, mean dose 0.18 mg/kg, individual dogs (Dog 1-6)): 0.163 L/kg
AUC [3, 11]: 5620 ng·h/mL
C0 [3, 11]: 1000 ng/mL
clearance [3, 11]: 0.52 mL/min/kg
half-life [3, 11]: 3.9 h
MRT [3, 11]: 5.6 h
Vd [3, 11]: 0.175 L/kg
C0 ([3]; both sexes, mixed-breed, dog, plasma, iv, 0.18 mg/kg, IV, mean dose 0.18 mg/kg, individual dogs (Dog 1-6)): 1210 ng/mL
AUC [3, 12]: 6030 ng·h/mL
C0 [3, 12]: 1010 ng/mL
clearance [3, 12]: 0.563 mL/min/kg
half-life [3, 12]: ~4.1 h
MRT [3, 12]: 6 h
Vd [3, 12]: 0.177 L/kg
concentration at 24 h ([3]; both sexes, mixed-breed, dog, plasma, IV 0.18 mg/kg, at 24 h, read-out: mean residual plasma concentration): 17 ng/mL
AUC ([3]; both sexes, mixed-breed, in vivo, IV, mean dose 0.18 mg/kg, one-compartment model, individual dogs (Dog 1-6)): 8140 ng·h/mL
AUC (area-under-the-curve) ([3]; IV, mean dose 0.18 mg/kg, one-compartment model, individual dogs (Dog 1-6), 0.18 mg/kg): 5,726.9 h*ng/ml and 4,802.6 h*ng/ml and 7,639.4 h*ng/ml and 7,330.9 h*ng/ml and 2,516.3 h*ng/ml
K10 (first order elimination rate) ([3]; IV, mean dose 0.18 mg/kg, geometric mean): 0.2 h⁻¹
C0 (concentration at time zero) [3, 13]: 853.9 ng/ml and 1,108.0 ng/ml and 958.3 ng/ml and 1,005.0 ng/ml and 913.4 ng/ml
CL (systemic clearance) [3, 13]: 0.573 mL/min/kg and 0.683 mL/min/kg and 0.39 mL/min/kg and 0.367 mL/min/kg and 0.348 mL/min/kg and 1.01 mL/min/kg
K10 (first order elimination rate) [3, 13]: 0.2 1/h (3×) and 0.1 1/h (2×) and 0.4 1/h
K10 T½ (elimination half-life) [3, 13]: 3.3 h and 4.8 h and 5.9 h and 5.1 h and 1.9 h
K10 (first order elimination rate) ([3]; IV, mean dose 0.18 mg/kg, mean of 6 dogs): 0.2 h⁻¹
time of peak aXa activity ([4]; following oral administration): 4 h
half-life ([4]; intravenously administered apixaban): 1.13 h
half-life ([4]; oral apixaban): 3.3 h
bioavailability ([4]; oral): 85.5%
adverse reactions, including signs of abnormal bleeding or bruising [5]: no adverse reactions
Baso ([6]; +24h after IV apixaban): 0.1 (2×) and 0.0 (4×)
Eos ([6]; +24h after IV apixaban): 0.3 (2×) and 0.4 (2×) and 0.7 (2×)
HCT ([6]; +24h after IV apixaban): 53 and 52 (2×) and 54 (2×) and 57
Hgb ([6]; +24h after IV apixaban): 17.7 and 17.2 and 16.8 and 17.5 (2×) and 18.3
Lymph ([6]; +24h after IV apixaban): 2.3 and 2 (2×) and 3.3 and 1.6 and 3.7
MCH ([6]; +24h after IV apixaban): 25 (3×) and 23 and 24 (2×)
MCHC ([6]; +24h after IV apixaban): 33 (2×) and 32 (4×)
MCV ([6]; +24h after IV apixaban): 73 and 75 and 71 and 74 and 76 (2×)
Mono ([6]; +24h after IV apixaban): 0.3 (2×) and 0.6 and 0.5 (3×)
Neut ([6]; +24h after IV apixaban): 4.1 and 5.8 and 5.6 (2×) and 5.1 and 8.0
RBC ([6]; +24h after IV apixaban): 7.2 (2×) and 6.9 and 7.3 (2×) and 7.4
WBC ([6]; +24h after IV apixaban): 7.1 and 8.8 and 9.6 and 8.9 and 7.6 and 13
Baso ([6]; +30h after PO apixaban): 0 (3×) and 0.1 and 0.0 (2×)
Eos ([6]; +30h after PO apixaban): 0.3 (2×) and 0.2 (2×) and 0.4 and 0.6
HCT ([6]; +30h after PO apixaban): 56 and 55 and 52 (2×) and 46 and 50
Lymph ([6]; +30h after PO apixaban): 3.2 and 2 (2×) and 1.6 and 0.8 and 3.6
MCH ([6]; +30h after PO apixaban): 24 (2×) and 25 (2×) and 23 (2×)
MCHC ([6]; +30h after PO apixaban): 33 (4×) and 32 (2×)
MCV ([6]; +30h after PO apixaban): 72 (2×) and 76 and 70 and 75 and 74
Mono ([6]; +30h after PO apixaban): 0.5 (4×) and 0.4 and 0.3
Neut ([6]; +30h after PO apixaban): 6.1 (2×) and 5.4 and 7.9 and 5.7 and 7.3
WBC ([6]; +30h after PO apixaban): 10.1 and 8.3 and 10.8 and 8 and 7.6 and 12.1
RBC ([6]; +30h after PO apixaban, in 10^6/µL (unit assumed)): 7.8 and 7.3 and 7.4 and 6.2 and 7 and 7.1
Hgb [6, 8]: 18.6 and 18 and 17 and 15.1 and 16.2 and 16.9
CBC parameters ([6]; IV, baseline versus 24 h): No changes
mean corpuscular hemoglobin concentration ([6]; PO, baseline versus 30 h): significant reduction
